ChEMBL document CHEMBL4251595, “Green approach for the synthesis of thiophenyl pyrazoles and isoxazoles by adopting 1,3-dipolar cycloaddition methodology and their antimicrobial activity” (2018)
The source made the active and inactive calls. The rule behind the calls is not given here.

Assays:
Type in all cases: functional
Bacillus subtilis [1] = experiment: Antimicrobial activity against Bacillus subtilis assessed as zone of inhibition at 50 ug/well after 24 hrs by agar well diffusion method; conditions: read-out: DIZ
Penicillium chrysogenum [2] = experiment: Antifungal activity against Penicillium chrysogenum assessed as zone of inhibition at 75 ug/well after 48 hrs by agar well diffusion method; conditions: for zone of inhibition at 75 µg/disc: read-out: DIZ
Pseudomonas aeruginosa [3] = experiment: Antimicrobial activity against Pseudomonas aeruginosa assessed as zone of inhibition at 50 ug/well after 24 hrs by agar well diffusion method; conditions: for zone of inhibition at 50 µg/disc: read-out: DIZ
Staphylococcus aureus [4] = experiment: Antimicrobial activity against Staphylococcus aureus assessed as zone of inhibition at 100 ug/well after 24 hrs by agar well diffusion method; conditions: for zone of inhibition at 100 µg/disc: read-out: DIZ
Penicillium chrysogenum [5] = experiment: Antifungal activity against Penicillium chrysogenum assessed as zone of inhibition at 100 ug/well after 48 hrs by agar well diffusion method; conditions: read-out: DIZ
Staphylococcus aureus [6] = experiment: Antimicrobial activity against Staphylococcus aureus assessed as zone of inhibition at 75 ug/well after 24 hrs by agar well diffusion method; conditions: for zone of inhibition at 75 µg/disc: read-out: DIZ
Klebsiella pneumoniae [7] = experiment: Antimicrobial activity against Klebsiella pneumoniae assessed as zone of inhibition at 100 ug/well after 24 hrs by agar well diffusion method; conditions: read-out: DIZ
Aspergillus niger [8] = experiment: Antifungal activity against Aspergillus niger assessed as zone of inhibition at 100 ug/well after 48 hrs by agar well diffusion method; conditions: read-out: DIZ
Aspergillus niger [9] = experiment: Antifungal activity against Aspergillus niger assessed as zone of inhibition at 50 ug/well after 48 hrs by agar well diffusion method; conditions: for zone of inhibition at 50 µg/disc: read-out: DIZ
Aspergillus niger [10] = experiment: Antifungal activity against Aspergillus niger assessed as zone of inhibition at 75 ug/well after 48 hrs by agar well diffusion method; conditions: read-out: DIZ
Bacillus subtilis [11] = experiment: Antimicrobial activity against Bacillus subtilis assessed as zone of inhibition at 100 ug/well after 24 hrs by agar well diffusion method; conditions: read-out: DIZ
Penicillium chrysogenum [12] = experiment: Antifungal activity against Penicillium chrysogenum assessed as zone of inhibition at 50 ug/well after 48 hrs by agar well diffusion method; conditions: for zone of inhibition at 50 µg/disc: read-out: DIZ
Bacillus subtilis [13] = experiment: Antimicrobial activity against Bacillus subtilis assessed as zone of inhibition at 75 ug/well after 24 hrs by agar well diffusion method; conditions: read-out: DIZ
Klebsiella pneumoniae [14] = experiment: Antimicrobial activity against Klebsiella pneumoniae assessed as zone of inhibition at 50 ug/well after 24 hrs by agar well diffusion method; conditions: for zone of inhibition at 50 µg/disc: read-out: DIZ
Staphylococcus aureus [15] = experiment: Antimicrobial activity against Staphylococcus aureus assessed as zone of inhibition at 50 ug/well after 24 hrs by agar well diffusion method; conditions: for zone of inhibition at 50 µg/disc: read-out: DIZ
Pseudomonas aeruginosa [16] = experiment: Antimicrobial activity against Pseudomonas aeruginosa assessed as zone of inhibition at 100 ug/well after 24 hrs by agar well diffusion method; conditions: for zone of inhibition at 100 µg/disc: read-out: DIZ
Pseudomonas aeruginosa [17] = experiment: Antimicrobial activity against Pseudomonas aeruginosa assessed as zone of inhibition at 75 ug/well after 24 hrs by agar well diffusion method; conditions: for zone of inhibition at 75 µg/disc: read-out: DIZ
Klebsiella pneumoniae [18] = experiment: Antimicrobial activity against Klebsiella pneumoniae assessed as zone of inhibition at 75 ug/well after 24 hrs by agar well diffusion method; conditions: for zone of inhibition at 75 µg/disc: read-out: DIZ

O=C(NS(=O)(=O)c1c(-c2ccccc2)noc1-c1ccccc1)c1cccs1
zone of inhibition at 50 µg/disc (Bacillus subtilis [1]): 24 mm
zone of inhibition at 75 µg/disc (Penicillium chrysogenum [2]): 16 mm
zone of inhibition at 50 µg/disc (Pseudomonas aeruginosa [3]): 11 mm
zone of inhibition at 100 µg/disc (Staphylococcus aureus [4]): 23 mm
zone of inhibition at 100 µg/disc (Penicillium chrysogenum [5]): 19 mm
zone of inhibition at 75 µg/disc (Staphylococcus aureus [6]): 21 mm
zone of inhibition at 100 µg/disc (Klebsiella pneumoniae [7]): 26 mm
zone of inhibition at 100 µg/disc (Aspergillus niger [8]): 23 mm
zone of inhibition at 50 µg/disc (Aspergillus niger [9]): 18 mm
zone of inhibition at 75 µg/disc (Aspergillus niger [10]): 20 mm
zone of inhibition at 100 µg/disc (Bacillus subtilis [11]): 29 mm
zone of inhibition at 50 µg/disc (Penicillium chrysogenum [12]): 14 mm
zone of inhibition at 75 µg/disc (Bacillus subtilis [13]): 26 mm
zone of inhibition at 50 µg/disc (Klebsiella pneumoniae [14]): 21 mm
zone of inhibition at 50 µg/disc (Staphylococcus aureus [15]): 17 mm
zone of inhibition at 100 µg/disc (Pseudomonas aeruginosa [16]): 15 mm
zone of inhibition at 75 µg/disc (Pseudomonas aeruginosa [17]): 13 mm
zone of inhibition at 75 µg/disc (Klebsiella pneumoniae [18]): 24 mm

Cc1ccc(/C=C/S(=O)(=O)NC(=O)c2ccc(Cl)s2)cc1
zone of inhibition at 50 µg/disc (Bacillus subtilis [1]): 17 mm
zone of inhibition at 75 µg/disc (Penicillium chrysogenum [2]): 10 mm
diameter of the inhibition zone (DIZ) (Pseudomonas aeruginosa [3]): inactive
zone of inhibition at 100 µg/disc (Staphylococcus aureus [4]): 14 mm
zone of inhibition at 100 µg/disc (Penicillium chrysogenum [5]): 12 mm
zone of inhibition at 75 µg/disc (Staphylococcus aureus [6]): 13 mm
zone of inhibition at 100 µg/disc (Klebsiella pneumoniae [7]): 17 mm
zone of inhibition at 100 µg/disc (Aspergillus niger [8]): 14 mm
zone of inhibition at 50 µg/disc (Aspergillus niger [9]): 9 mm
zone of inhibition at 75 µg/disc (Aspergillus niger [10]): 11 mm
zone of inhibition at 100 µg/disc (Bacillus subtilis [11]): 22 mm
diameter of the inhibition zone (DIZ) (Penicillium chrysogenum [12]): inactive
zone of inhibition at 75 µg/disc (Bacillus subtilis [13]): 19 mm
zone of inhibition at 50 µg/disc (Klebsiella pneumoniae [14]): 14 mm
zone of inhibition at 50 µg/disc (Staphylococcus aureus [15]): 10 mm
zone of inhibition at 100 µg/disc (Pseudomonas aeruginosa [16]): 12 mm
zone of inhibition at 75 µg/disc (Pseudomonas aeruginosa [17]): 11 mm
zone of inhibition at 75 µg/disc (Klebsiella pneumoniae [18]): 15 mm

O=C(NS(=O)(=O)c1c(-c2ccccc2)nn(-c2ccccc2)c1-c1ccccc1)c1cccs1
zone of inhibition at 50 µg/disc (Bacillus subtilis [1]): 22 mm
zone of inhibition at 75 µg/disc (Penicillium chrysogenum [2]): 14 mm
zone of inhibition at 50 µg/disc (Pseudomonas aeruginosa [3]): 9 mm
zone of inhibition at 100 µg/disc (Staphylococcus aureus [4]): 20 mm
zone of inhibition at 100 µg/disc (Penicillium chrysogenum [5]): 16 mm
zone of inhibition at 75 µg/disc (Staphylococcus aureus [6]): 18 mm
zone of inhibition at 100 µg/disc (Klebsiella pneumoniae [7]): 23 mm
zone of inhibition at 100 µg/disc (Aspergillus niger [8]): 20 mm
zone of inhibition at 50 µg/disc (Aspergillus niger [9]): 15 mm
zone of inhibition at 75 µg/disc (Aspergillus niger [10]): 16 mm
zone of inhibition at 100 µg/disc (Bacillus subtilis [11]): 26 mm
zone of inhibition at 50 µg/disc (Penicillium chrysogenum [12]): 12 mm
zone of inhibition at 75 µg/disc (Bacillus subtilis [13]): 23 mm
zone of inhibition at 50 µg/disc (Klebsiella pneumoniae [14]): 18 mm
zone of inhibition at 50 µg/disc (Staphylococcus aureus [15]): 15 mm
zone of inhibition at 100 µg/disc (Pseudomonas aeruginosa [16]): 12 mm
zone of inhibition at 75 µg/disc (Pseudomonas aeruginosa [17]): 10 mm
zone of inhibition at 75 µg/disc (Klebsiella pneumoniae [18]): 20 mm

O=C(NS(=O)(=O)C1C(c2ccccc2)=NN(c2ccccc2)C1c1ccc([N+](=O)[O-])cc1)c1ccc(Cl)s1 (stereo not drawn)
zone of inhibition at 50 µg/disc (Bacillus subtilis [1]): 13 mm
zone of inhibition at 75 µg/disc (Penicillium chrysogenum [2]): 10 mm
diameter of the inhibition zone (DIZ) (Pseudomonas aeruginosa [3]): inactive
zone of inhibition at 100 µg/disc (Staphylococcus aureus [4]): 10 mm
zone of inhibition at 100 µg/disc (Penicillium chrysogenum [5]): 14 mm
diameter of the inhibition zone (DIZ) (Staphylococcus aureus [6]): inactive
zone of inhibition at 100 µg/disc (Klebsiella pneumoniae [7]): 14 mm
zone of inhibition at 100 µg/disc (Aspergillus niger [8]): 17 mm
zone of inhibition at 50 µg/disc (Aspergillus niger [9]): 10 mm
zone of inhibition at 75 µg/disc (Aspergillus niger [10]): 14 mm
zone of inhibition at 100 µg/disc (Bacillus subtilis [11]): 19 mm
diameter of the inhibition zone (DIZ) (Penicillium chrysogenum [12]): inactive
zone of inhibition at 75 µg/disc (Bacillus subtilis [13]): 15 mm
zone of inhibition at 50 µg/disc (Klebsiella pneumoniae [14]): 12 mm
diameter of the inhibition zone (DIZ) (Staphylococcus aureus [15]): inactive
diameter of the inhibition zone (DIZ) (Pseudomonas aeruginosa [16]): inactive
diameter of the inhibition zone (DIZ) (Pseudomonas aeruginosa [17]): inactive
zone of inhibition at 75 µg/disc (Klebsiella pneumoniae [18]): 13 mm

Cc1ccc(/C=C/S(=O)(=O)NC(=O)c2cccs2)cc1
zone of inhibition at 50 µg/disc (Bacillus subtilis [1]): 13 mm
diameter of the inhibition zone (DIZ) (Penicillium chrysogenum [2]): inactive
diameter of the inhibition zone (DIZ) (Pseudomonas aeruginosa [3]): inactive
zone of inhibition at 100 µg/disc (Staphylococcus aureus [4]): 12 mm
zone of inhibition at 100 µg/disc (Penicillium chrysogenum [5]): 10 mm
zone of inhibition at 75 µg/disc (Staphylococcus aureus [6]): 11 mm
zone of inhibition at 100 µg/disc (Klebsiella pneumoniae [7]): 16 mm
zone of inhibition at 100 µg/disc (Aspergillus niger [8]): 12 mm
diameter of the inhibition zone (DIZ) (Aspergillus niger [9]): inactive
zone of inhibition at 75 µg/disc (Aspergillus niger [10]): 8 mm
zone of inhibition at 100 µg/disc (Bacillus subtilis [11]): 18 mm
diameter of the inhibition zone (DIZ) (Penicillium chrysogenum [12]): inactive
zone of inhibition at 75 µg/disc (Bacillus subtilis [13]): 15 mm
zone of inhibition at 50 µg/disc (Klebsiella pneumoniae [14]): 12 mm
diameter of the inhibition zone (DIZ) (Staphylococcus aureus [15]): inactive
zone of inhibition at 100 µg/disc (Pseudomonas aeruginosa [16]): 9 mm
zone of inhibition at 75 µg/disc (Pseudomonas aeruginosa [17]): 7 mm
zone of inhibition at 75 µg/disc (Klebsiella pneumoniae [18]): 13 mm

O=C(NS(=O)(=O)C1C(c2ccccc2)=NN(c2ccccc2)C1c1ccccc1)c1ccc(Cl)s1 (stereo not drawn)
zone of inhibition at 50 µg/disc (Bacillus subtilis [1]): 8 mm
diameter of the inhibition zone (DIZ) (Penicillium chrysogenum [2]): inactive
diameter of the inhibition zone (DIZ) (Pseudomonas aeruginosa [3]): inactive
diameter of the inhibition zone (DIZ) (Staphylococcus aureus [4]): inactive
zone of inhibition at 100 µg/disc (Penicillium chrysogenum [5]): 9 mm
diameter of the inhibition zone (DIZ) (Staphylococcus aureus [6]): inactive
zone of inhibition at 100 µg/disc (Klebsiella pneumoniae [7]): 11 mm
zone of inhibition at 100 µg/disc (Aspergillus niger [8]): 13 mm
zone of inhibition at 50 µg/disc (Aspergillus niger [9]): 8 mm
zone of inhibition at 75 µg/disc (Aspergillus niger [10]): 11 mm
zone of inhibition at 100 µg/disc (Bacillus subtilis [11]): 15 mm
diameter of the inhibition zone (DIZ) (Penicillium chrysogenum [12]): inactive
zone of inhibition at 75 µg/disc (Bacillus subtilis [13]): 11 mm
diameter of the inhibition zone (DIZ) (Klebsiella pneumoniae [14]): inactive
diameter of the inhibition zone (DIZ) (Staphylococcus aureus [15]): inactive
diameter of the inhibition zone (DIZ) (Pseudomonas aeruginosa [16]): inactive
diameter of the inhibition zone (DIZ) (Pseudomonas aeruginosa [17]): inactive
diameter of the inhibition zone (DIZ) (Klebsiella pneumoniae [18]): inactive
